Experimental findings from US5475034A, “Topically administrable compositions containing 3-benzoylphenylacetic acid derivatives for treatment of ophthalmic inflammatory disorders” (Alcon Laboratories, Inc., priority 1994, dated 1995) are described below.

Assay [1] addresses T1, prostaglandin H synthase (cyclooxygenase) (Ovis aries, UniProt P05979).
T1 construct: sheep vesicular gland microsomal powder; from tissue; host or cells: sheep vesicular gland (lipid-depleted microsomal powder, solubilized)
T1 sequence (P05979 25-600): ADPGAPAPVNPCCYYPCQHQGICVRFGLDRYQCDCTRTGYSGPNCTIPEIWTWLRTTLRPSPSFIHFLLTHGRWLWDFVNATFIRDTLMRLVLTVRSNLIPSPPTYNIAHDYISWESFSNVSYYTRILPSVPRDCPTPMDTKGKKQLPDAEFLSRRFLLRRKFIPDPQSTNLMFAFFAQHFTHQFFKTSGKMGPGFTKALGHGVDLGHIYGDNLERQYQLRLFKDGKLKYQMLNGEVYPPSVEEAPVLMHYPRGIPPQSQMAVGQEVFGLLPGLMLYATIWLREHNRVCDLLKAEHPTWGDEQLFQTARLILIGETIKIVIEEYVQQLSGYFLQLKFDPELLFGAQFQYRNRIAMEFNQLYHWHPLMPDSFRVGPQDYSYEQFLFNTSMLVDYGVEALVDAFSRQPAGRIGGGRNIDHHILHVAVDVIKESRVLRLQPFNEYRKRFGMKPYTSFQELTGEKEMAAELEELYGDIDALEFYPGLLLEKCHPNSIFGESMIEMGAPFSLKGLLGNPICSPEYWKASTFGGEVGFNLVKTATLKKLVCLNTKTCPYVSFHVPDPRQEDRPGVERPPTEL
Briefly: In vitro inhibition of cyclooxygenase (polarographic oxygen consumption, conversion of arachidonic acid to prostaglandin H2). Format: biochemical, sheep. Conditions: for IC50: sheep vesicular gland microsomal enzyme, pH 7.4, 30° C.; for less effective inhibitors of cyclooxygenase activity in vitro: versus free carboxylic acid analogues. As to the method: In vitro anti-inflammatory activity of 2-amino-3-benzoylbenzeneacetic acid analogues was tested by polarographically monitoring the inhibition in the rate of oxygen consumption (Cook H. W., Ford G., and Lands WEM, Anal. Biochem. 96:341, 1979) in the conversion of arachidonic acid to prostaglandin H2 by prostaglandin H synthase (cyclooxygenase). Cyclooxygenase enzyme was prepared by solubilizing 20 mg of lipid-depletedsheep vesicular gland microsomal powder (Graff G., Stephenson J. H., et al., J. Biol. Chem. 253:7662, 1978) in 1.0 mL of buffer containing 50 mM phosphate, 5 mM diethyldithiocarbamic acid, and 2 μM hematin (pH 7.4). Incubations were carried out at 30° C. with a YSI-oxygen monitor (Model 53) in 50 mM phosphate/0.5 mM phenol buffer (pH 7.4) as described elsewhere (Graff G., and Anderson L. A., Prostaglandins 38:473, 1989).

Assay [2] concerns iris/ciliary body prostaglandin synthesis. Briefly: Ex vivo inhibition of iris/ciliary body prostaglandin synthesis after topical dosing. It is filed as in vivo, New Zealand Albino (NZA) rabbits. Conditions: for inhibition in vivo at 0.1 %: Oryctolagus cuniculus, 1 h, single topical dose of 0.1% drug solution/suspension 60 minutes prior to iris/ciliary body isolation, read-out: Ex Vivo Iris/Ciliary Body Total Prostaglandin Synthesis Inhibition. As to the method:
Ex vivo anti-inflammatory activity of 2-amino-3-benzoylbenzeneacetic acid analogues was evaluated in naive New Zealand Albino (NZA) rabbits. In this test animals were dosed bilaterally with a single 50 μL aliquot of a 0.1% solution/suspension of vehicle, formulated test or reference compound. After 60 minutes of treatment, animals were euthanized, iris/ciliary body (ICB) quickly excised and placed into ice-cold PBS buffer (pH 7.4). The tissue was then weighed, homogenized in ice-cold 50 mM phosphate/0.5 mM phenol buffer (pH 7.4) and incubated for 10 minutes at 37° C. with 10 μM of [1-^14 C]-20:4.

Assay [3] deals with trauma-induced breakdown of the blood-aqueous-barrier. Briefly: In vivo trauma-induced (paracentesis) breakdown of the blood-aqueous-barrier: aqueous humor PGE2 and protein. More on the design: species or system New Zealand Albino (NZA) rabbits. The following applies: for inhibition in vivo at 0.1 %: Oryctolagus cuniculus, 0.5 h, read-out: In Vivo Paracentesis Protein Extravasation Inhibition. The protocol: In vivo anti-inflammatory activity of 2-amino-3-benzoylbenzeneacetic acid analogues was evaluated in the model of trauma-induced breakdown of the blood-aqueous-barrier in New Zealand Albino (NZA) rabbits. Animals were anesthetized prior to bilateral administration of a single topical 50 μL dose of a 0.1% solution/suspension of formulated test or reference compound. After 45 minutes of treatment ocular trauma was induced by paracentesis.

[4] abbreviates: single topical dose of 0.1% drug solution/suspension 45 minutes prior to paracentesis, plasma protein influx into aqueous humor.
[5] abbreviates: single topical dose of 0.1% drug solution/suspension 45 minutes prior to paracentesis.

Each structure is given as a SMILES string. Read-outs that look alike come from different tables or passages of the source.

Usually IC50 stands for the point on the concentration scale where inhibition reaches its midpoint. Higher therefore signals a need for much substance. Take `NC(=O)Cc1cccc(C(=O)c2ccccc2)c1N` [Compound 8, 2-Amino-3-benzoyl-phenylacetamide]: in assay [1], the IC50 turned out to be 64 µM and the “less effective inhibitors of cyclooxygenase activity in vitro” value (shortened to “less effective inhibitors”) is ≥ 3 orders of magnitude. Further, the inhibition in vivo at 0.1 % in assay [2] was 81%. Also, the “spectrum of inhibition of iris/ciliary body prostaglandins” value in assay [2] (individual prostaglandins) is “inhibited to a similar extent”. The “ex vivo iris/ciliary body prostaglandin synthesis inhibition, result in words” value in assay [2] (rabbit, in vivo) was “most effective inhibitor”. Besides, the inhibition in vivo at 0.1 % in assay [3] (setting [4]) was 61%. For the same compound, the “In Vivo Aqueous Humor PGE2 Accumulation Inhibition” value in assay [3] (setting [5]) stood at 98%.
On to `O=C(O)Cc1ccccc1Nc1c(Cl)cccc1Cl` [Diclofenac, reference compound], for which the “in vitro cyclooxygenase inhibition, result in words” value in assay [1] is reported as “somewhat less effective”. The inhibition in vivo at 0.1 % in assay [2] came to 50%; in assay [3], 54%. For the same compound, in assay [3] (plasma protein influx and aqueous humor PGE2 accumulation), the “in vivo anti-inflammatory activity, result in words” value is recorded as “somewhat less effective”. Further, the “In Vivo Aqueous Humor PGE2 Accumulation Inhibition” value in assay [3] (setting [5]) amounted to 97%.
Regarding `Nc1c(CC(=O)O)cccc1C(=O)c1ccc(Cl)cc1` [4'-Cl OH, 2-amino-3-(4-chloro-benzoyl)benzeneacetic acid, reference compound], inhibition in assay [1] was half-maximal at 0.07 µM (IC50). The inhibition in vivo at 0.1 % in assay [3] (setting [4]) turned out to be 72%. The “In Vivo Aqueous Humor PGE2 Accumulation Inhibition” value in assay [3] (setting [5]) was 99%.
Regarding `CN(C)C(=O)Cc1cccc(C(=O)c2ccc(Br)cc2)c1N` [4'-Br N(CH3)2, reference compound], in assay [1], the “in vitro cyclooxygenase inhibition, result in words” value is “inactive” and the IC50 was more than 100 µM. For the same compound, the “in vivo anti-inflammatory activity, result in words” value in assay [3] is “inactive”. Besides, the inhibition in vivo at 0.1 % in assay [3] (setting [4]) turned out to be 2%. Also, in assay [3] (setting [5]), the “In Vivo Aqueous Humor PGE2 Accumulation Inhibition” value is reported as -27%.
The compound `Nc1c(CC(=O)O)cccc1C(=O)c1ccccc1` [Amfenac, 2-amino-3-benzoylbenzeneacetic acid, reference compound] registered an IC50 in assay [1] of 0.25 µM. Also, in assay [3] (setting [4]), the inhibition in vivo at 0.1 % was found to be 41%.
As to `Nc1c(CC(=O)O)cccc1C(=O)c1ccc(Br)cc1` [Bromfenac, reference compound], the IC50 in assay [1] worked out at 0.029 µM. Besides, the figures for the inhibition in vivo at 0.1 % in assay [2] and in assay [3] (setting [4]) were 44% and 62%, respectively. In assay [3] (setting [5]), the “In Vivo Aqueous Humor PGE2 Accumulation Inhibition” value is 98%.
For the compound `NC(=O)Cc1cccc(C(=O)c2ccc(Cl)cc2)c1N` [Compound 9, 2-Amino-3-(4-chlorobenzoyl)-phenylacetamide], in assay [1], the IC50 was more than 100 µM and the “less effective inhibitors” value is ≥ 3 orders of magnitude. In addition, in assay [2], the inhibition in vivo at 0.1 % stood at 29%. In addition, the inhibition in vivo at 0.1 % in assay [3] (setting [4]) is 65%. The “In Vivo Aqueous Humor PGE2 Accumulation Inhibition” value in assay [3] (setting [5]) amounted to 98%.
For `Nc1c(CC(=O)O)cccc1C(=O)c1ccc(F)cc1` [4'-F OH, reference compound], in assay [1], the IC50 was determined as 0.171 µM. Besides, in assay [3] (setting [4]), the inhibition in vivo at 0.1 % worked out at 42%.
In the case of `NC(=O)Cc1cccc(C(=O)c2ccc(F)cc2)c1N` [Compound 7, 2-Amino-3-(4-fluorobenzoyl)-phenylacetamide], in assay [1], the midpoint of inhibition, the IC50, lay at 133 µM and the “less effective inhibitors” value is ≥ 3 orders of magnitude. Further, the inhibition in vivo at 0.1 % in assay [2] worked out at 27%. Moreover, the inhibition in vivo at 0.1 % in assay [3] (setting [4]) stood at 72%. For the same compound, the “In Vivo Aqueous Humor PGE2 Accumulation Inhibition” value in assay [3] (setting [5]) stood at 98%.
On to `NC(=O)Cc1cccc(C(=O)c2ccc(Br)cc2)c1N` [Compound 15, 2-Amino-3-(4-bromobenzoyl)-phenylacetamide], for which the IC50 in assay [1] was found to be 19 µM. Further, the “less effective inhibitors” value in assay [1] is ≥ 3 orders of magnitude. In addition, the values for the inhibition in vivo at 0.1 % in assay [2] and in assay [3] (setting [4]) were 23% and 64%, respectively. Also, in assay [3] (setting [5]), the “In Vivo Aqueous Humor PGE2 Accumulation Inhibition” value amounted to 97%.
Consider `CCOC(=O)Cc1cccc(C(=O)c2ccc(Br)cc2)c1N` [Compound 14, Ethyl-2-Amino-3-(4-bromobenzoyl)benzene acetate], for which the IC50 in assay [1] is more than 25 µM. The inhibition in vivo at 0.1 % in assay [2] worked out at 33%; in assay [3] (setting [4]) it was 60%.
In the case of `CNC(=O)Cc1cccc(C(=O)c2ccc(Br)cc2)c1N` [Compound 16, 2-Amino-3-(4-bromobenzoyl)-N-methyl phenylacetamide], in assay [1], the IC50 is 16 µM and the “less effective inhibitors” value is on record as ≥ 3 orders of magnitude. Besides, the inhibition in vivo at 0.1 % in assay [2] is 48%. The inhibition in vivo at 0.1 % in assay [3] (setting [4]) stood at 62%. The “In Vivo Aqueous Humor PGE2 Accumulation Inhibition” value in assay [3] (setting [5]) was determined as 93%.
